Patent US20100075364A1, “METHOD FOR SELECTING MAMMAL TRANSFORMED CELLS” (FOOD AND DRUG SAFETY CENTER, priority 2008, published 2010)

Columns and labels:
Bhas 42 cells [1] = assay: Selection of Bhas 42 transformed cells by BP treatment and light irradiation; format: cell-based, mouse; details: BP 20 ng/mL + light irradiation 2 J/cm^2 (UVA), observed 24 hours later
Method: Whether or not transformed cells can be selected using active oxygens other than hydrogen peroxide was analyzed. Since such active oxygens other than hydrogen peroxide are extremely unstable and have a short life time, they cannot be used as reagents. Accordingly, benzo(a)pyrene (BP) for generating superoxide anion radical as a result of light irradiation was utilized. Transformed foci were induced in Bhas 42 cells (by the method of Example 1), and the medium was then exchanged with a phosphate buffered saline (2 mL/well). […] Using a sunlight simulator, light was applied to the cells (300 to 800 nm; UVA irradiation intensity: 5.6 mW/cm^2; irradiation time: 6 minutes; irradiation dose: 2 J/cm^2), and the medium was then exchanged. Twenty-four hours later, the resultant cells were observed.

Bhas 42 cells [2] = assay: Bhas 42 cell transformation test with MCA, hydrogen peroxide method with dye and Giemsa staining; format: cell-based, mouse; details: MCA 0.1, 0.3, 1 μg/mL for 3 days; 0.0015% hydrogen peroxide day 21, alamarBlue or WST-8
Method: A basic experiment was carried out as follows. In a Bhas 42 cell transformation test using a 96-well plate (0.1 mL of medium/well), 0.05 mL of a medium containing hydrogen peroxide (in a concentration 3 times higher than the final concentration) was added on the 21st day after cell inoculation. 1 to 24 hours later, 0.05 mL of a medium containing alamarBlue or WST-8 (0.01 mL of dye+0.04 mL of medium) was added.
Whether or not the transformation of Bhas 42 cells could be quantified with a dye was analyzed using MCA. The cells were inoculated (200 cells/0.05 mL of medium/well), and on the following day, 0.05 mL of a medium containing MCA (0.2, 0.6, and 2 μg/mL: all of which were 2 times higher than the final concentrations that were 0.1, 0.3, and 1 μg/mL, respectively) was added thereto. The cells were treated for 3 days, and a medium containing hydrogen peroxide (0.0045%: 3 times higher than the final concentration that was 0.0015%) was added thereto on the 21st day after cell inoculation. 24 hours later, a dye was added, and measurement was then carried out. Thereafter, 0.02 mL of glutaraldehyde (2.5%: approximately 10 times higher than the final concentration that was 0.25%) was further added, and the resultant cells were then left for 30 minutes or more for fixation. Thereafter, the cells were washed with water and were then subjected to Giemsa staining.

Bhas 42 cells [3] = details: 0.0015% final, 24 hours
Method: In order to observe the morphology of a transformed focus and the morphology of normal cells existing around the transformed focus before and after a treatment with hydrogen peroxide, the following experiment was carried out using 3-methylcholanthrene (MCA) as an initiator. […] Thereafter, 0.2 mL of a medium containing hydrogen peroxide (0.0165%: 11 times higher than the final concentration that was 0.0015%) was added, and the transformed focus was then observed 24 hours after the addition of hydrogen peroxide.

[4] = tested on: Hu-MI cells and human cancer cells (A549, FLC-5, HCT 116, MKN28); details: 0.003% final, 24 hours, day 14
Method: Whether or not human transformed cells can also be selected by treatment with hydrogen peroxide was analyzed. […] An experimental system was prepared, such that a large number of Hu-MI cells and a small number of human cancer cells (A549 cells: lung cancer; FLC-5 cells: liver cancer; HCT 116 cells: colon cancer; and MKN28 cells: stomach cancer) were simultaneously inoculated and such that they were co-cultured.
The Hu-MI cells (10^4 cells/well) and various types of cancer cells (500 cells/well for FLC-5 cells; and 100 cells/well for other cells) were each inoculated on a 6-well plate (2 mL of medium/well). On the 14th day after the inoculation, 0.2 mL of medium containing hydrogen peroxide (0.033%: 11 times higher than the final concentration that was 0.003%) was added thereto, and the cells were then observed 24 hours after the addition of hydrogen peroxide. As a medium, MEM+10% fetal bovine serum was used.

Bhas 42 cells [5] = details: depending on concentration and treatment time (1 to 24 hours)
Method: 1 to 24 hours later, 0.05 mL of a medium containing alamarBlue or WST-8 (0.01 mL of dye+0.04 mL of medium) was added. Three hours after the addition of the aforementioned medium, a fluorescence level (excitation: 530 nm; measurement: 590 nm) or absorbance (450 nm) was measured (FIG. 2).
In order to find conditions under which normal cells are killed but transformed cells survive, an experiment was carried out to obtain an appropriate concentration of hydrogen peroxide and an appropriate treatment time.

mouse lung tumor cells = details: 0.015% final, 24 hours, lung tumor slices
Method: Whether or not the transformed cells can be selected even in vivo was analyzed. The following experiment was carried out using rasH2 mice (human c-Ha-ras gene-introduced mice; female; 6-week-old). N-ethyl-N-nitrosourea used as an initiator was intraperitoneally administered to each mouse (120 mg/kg/10 mL of physiological saline). From 1 week after the administration of N-ethyl-N-nirosourea, butylhydroxytoluene used as a promoter was orally administered once a week, repeatedly for 7 weeks (400 mg/kg/10 mL of corn oil). Thereafter, the mouse was further bred for 2 weeks. […] The medium was left at rest in a CO2 incubator (5% CO2, 37° C.) for 24 hours, and the sample was then stained with a trypan blue solution (prepared by adding 0.002% trypan blue to phosphate buffered saline) for 10 minutes. It is to be noted that trypan blue is not incorporated into living cells but is incorporated into dead cells, and that it stains the cells blue.

Q: `c1ccc2c(c1)cc1ccc3cccc4ccc2c1c34` [BP, benzo(a)pyrene] was tested. Which “selection of the transformed cells” value (Bhas 42 cells [1]) did it give?
A: observed only in the case of a BP treatment+light irradiation group

Q: For `Cc1ccc2cc3c(ccc4ccccc43)c3c2c1CC3` [MCA, 3-methylcholanthrene], which “transformed foci and fluorescence level or absorbance” value (Bhas 42 cells [2]) is on record?
A: increased depending on the dosage

Q: With `OO` [hydrogen peroxide] as the compound, how does the “morphology of normal cells around the transformed focus after addition of hydrogen peroxide” value (Bhas 42 cells [3]; day 21) read?
A: cytoplasm was denatured

Q: What about the “morphology of the transformed focus after addition of hydrogen peroxide” value (Bhas 42 cells [3]; day 21, foci induced by 1 μg/mL MCA) of the same compound?
A: not changed

Q: What about the “fate of Hu-MI cells (considered normal cells)” value [4] of the same compound?
A: died and were thereby removed

Q: What about the “fate of human cancer cells (A549, FLC-5, HCT 116, MKN28)” value [4] of the same compound?
A: remained in the state of colonies and survived

Q: What about the “effect on normal cells versus transformed focus wells, absorbance of WST-8 as indicator” value (Bhas 42 cells [5]) of the same compound?
A: specifically destroys normal cells

Q: What about the “trypan blue staining (dead cells) of tumor and non-tumor portion” value (mouse lung tumor cells) of the same compound?
A: only the non-tumor portion was stained blue
